From ChEMBL document CHEMBL1130920, “The structure-activity relationships of a series of suicide inhibitors of phospholipase A2” (Bioorg Med Chem Lett, 1998) come the findings set out here.

The nature of the experiment: Compound was tested for the inhibitory activity against cobra venom PLA2 (Naja naja atra) by using the Dole assay.
Compound `CS(=O)(=O)c1ccc(O)cc1` yielded an Activity (nM min-1 mg-1) of 11.1.
With `O=[N+]([O-])c1ccc(O)cc1` the figure was 2.5; with `O=S(=O)(c1ccc(O)cc1)C(F)(F)F`, 11.9.
`[O-][S+](c1ccc(O)cc1)C(F)(F)F` (centres undefined) displayed an Activity (nM min-1 mg-1) of 2.
